Literature values in patent US9861605B2, “Enriched injectable emulsion containing selected fatty acid triglycerides” (STABLE SOLUTIONS LLC, priority 2011, dated 2018).

Settings: against water

interfacial tension	SMILES
15.6 dyne/cm	CCCCCCCC/C=C\CCCCCCCC(=O)O [oleic acid]
approximately 8.2 dyne/cm	CCCCCCCC(=O)O [caprylic acid]
